In US20240166617A1, “PHOSPHOINOSITIDE 3 KINASE BETA INHIBITORS AND COMPOSITIONS AND METHODS THEREOF” (Geode Therapeutics Inc., priority 2021, published 2024):
Where two headings read alike, the source gives them in different places.

Tested on: phosphorylation of AKT in HCC70 cells
Assay: Cellular assay: phosphorylation of AKT in HCC70 cells (western blotting)
Assay type: cell-based
Conditions: Homo sapiens, HCC70, 1 h
Procedure: Cellular activity of PI3Kβ inhibitors was determined by quantifying the phosphorylation of AKT in HCC70 cells. AKT phosphorylated at Ser473 and Thr308 were measured using western blotting and specific primary antibodies from Cell Signaling (CST), Danvers, MA. On day 1, HCC70 cells (ATCC #CRL-2315) were seeded into Falcon 12-well cell Culture Plate (Corning #353043) at 100,000 cells per well, in 1 ml complete culture medium (RPMI-1640, GIBCO #11875093) containing 10% heat inactivated FBS (GIBCO #10438026), 1% Pen-Strep (GIBCO #15140122) and incubated at 37° AC, 5% CO2 overnight. On day 2, compound (500 nM) or DMSO (0.1%, Sigma Aldrich #8418) was added and cells were further incubated for 60 min at 37° AC, 5% CO2 in a total volume of 1 ml fresh medium.
At the end of the cell treatment period, media were removed by aspiration and adherent cells were lysed in 100 uL RIPA buffer (Sigma Aldrich #R0278). Equal volume (15 uL) of proteins was resolved by SDS-PAGE and transferred to PVDF (Millipore #IPFL00010) membrane for immunoblot analysis. Primary antibodies to the following proteins were used for immunoblotting: phosphor-AKT (Ser473) (CST #4060), phosphor-AKT (Thr308) (CST #2965), total AKT (CST #9272). Secondary goat anti-rabbit IgG fluorophore conjugated antibody (Invitrogen #A21109) was used to visualize the indicated proteins on an Odyssey CLx imaging system (Li-Cor). Quantification of band intensities was performed using Odyssey 3.0 software. Inhibition of Akt activity was calculated by band intensities using the formula: […]
Index was evaluated by % of AI. Data represent Index+(20˜60%), ++(60%˜80%), +++(80%˜90%), and ++++>90%.

[1] = HCC70 cells, compound 500 nM, 60 min, inhibition of Akt activity from band intensities, read-out: Index of AI (HCC70) p-AKT Thr 308
[2] = HCC70 cells, compound 500 nM, 60 min, inhibition of Akt activity from band intensities, read-out: Index of AI (HCC70) p-AKT ser 473
[3] = read-out: Index of AI (HCC70) p-AKT Thr 308
[4] = read-out: Index of AI (HCC70) p-AKT ser 473

Structure (SMILES): CC(=O)N(C)c1cc(C(C)Nc2cc(F)cc(F)c2)c2oc(N3CCOCC3)cc(=O)c2c1 (centres unmarked) [Compound 9, N-(8-(1-((3,5-difluorophenyl)amino)ethyl)-2-morpholino-4-oxo-4H-chromen-6-yl)-N-methylacetamide]
- inhibition at 0.5 µM [1]: 80 to 90%
- inhibition at 0.5 µM [2]: 80 to 90%

Structure (SMILES): CC(Nc1cc(F)cc(F)c1)c1cc(NC2=NC(C)(C)CO2)cn2c(=O)cc(N3CCOCC3)nc12 (centres unmarked) [Compound 47, 9-(1-((3,5-difluorophenyl)amino)ethyl)-7-((4,4-dimethyl-4,5-dihydrooxazol-2-yl)amino)-2-morpholino-4H-pyrido[1,2-a]pyrimidin-4-one]
- inhibition at 0.5 µM [1]: > 90%
- inhibition at 0.5 µM [2]: > 90%

Structure (SMILES): CN(C)C(=O)c1cc(CN2CCc3c(Cl)cccc32)c2oc(N3CCOCC3)cc(=O)c2c1 [Compound 71, 8-((4-chloroindolin-1-yl)methyl)-N,N-dimethyl-2-morpholino-4-oxo-4H-chromene-6-carboxamide]
- inhibition at 0.5 µM [1]: > 90%
- inhibition at 0.5 µM [2]: > 90%

Structure (SMILES): COc1cccc2c1N(Cc1cc(C(=O)N(C)C)cc3c(=O)cc(N4CCOCC4)oc13)CC2 [Compound 72, 8-((7-methoxyindolin-1-yl)methyl)-N,N-dimethyl-2-morpholino-4-oxo-4H-chromene-6-carboxamide]
- inhibition at 0.5 µM [1]: 20 to 60%
- inhibition at 0.5 µM [2]: 20 to 60%

Structure (SMILES): CC(Nc1cc(F)cc(F)c1)c1cc(S(=O)(=O)N2CC(N)C2)cc2c(=O)cc(N3CCOCC3)oc12 (centres unmarked) [Compound 17, 6-((3-aminoazetidin-1-yl)sulfonyl)-8-(1-((3,5-difluorophenyl)amino)ethyl)-2-morpholino-4H-chromen-4-one]
- inhibition at 0.5 µM [1]: 60 to 80%
- inhibition at 0.5 µM [2]: 60 to 80%

Structure (SMILES): Cc1cc(CN2CCc3c(F)cccc32)c2nc(N3CCOCC3)cc(=O)n2c1 [Compound 52, 9-[(4-fluoroindolin-1-yl)methyl]-7-methyl-2-morpholino-pyrido[1,2-a]pyrimidin-4-one]
- inhibition at 0.5 µM [1]: 60 to 80%
- inhibition at 0.5 µM [2]: 60 to 80%

Structure (SMILES): O=C(NC1CCOCC1)c1cc(CN2CCc3c(F)cc(F)cc32)c2oc(N3CCOCC3)cc(=O)c2c1 [Compound 83, 8-((4,6-difluoroindolin-1-yl)methyl)-2-morpholino-4-oxo-N-(tetrahydro-2H-pyran-4-yl)-4H-chromene-6-carboxamide]
- inhibition at 0.5 µM [1]: 60 to 80%
- inhibition at 0.5 µM [2]: 60 to 80%

Structure (SMILES): CN(C)C(=O)c1cc(CN2CCc3c(F)cc(F)cc32)c2oc(N3CCO[C@H](CF)C3)cc(=O)c2c1 [Compound 93, (S)-8-((4,6-difluoroindolin-1-yl)methyl)-2-(2-(fluoromethyl)morpholino)-N,N-dimethyl-4-oxo-4H-chromene-6-carboxamide]
- inhibition at 0.5 µM [1]: 80 to 90%
- inhibition at 0.5 µM [2]: 80 to 90%

Structure (SMILES): CCC(Nc1cc(F)cc(F)c1)c1cc(C(=O)N(C)C)cc2c(=O)cc(N3CCOCC3)oc12 (centres unmarked) [Compound 31, 8-(1-((3,5-difluorophenyl)amino)propyl)-N,N-dimethyl-2-morpholino-4-oxo-4H-chromene-6-carboxamide]
- inhibition at 0.5 µM [1]: > 90%
- inhibition at 0.5 µM [2]: > 90%

Structure (SMILES): CN(C)C(=O)c1cc(CN2CCc3c(Cl)ccc(F)c32)c2nc(N3CCOCC3)cc(=O)n2c1 [Compound 100, 9-((4-chloro-7-fluoroindolin-1-yl)methyl)-N,N-dimethyl-2-morpholino-4-oxo-4H-pyrido[1,2-a]pyrimidine-7-carboxamide]
- inhibition at 0.5 µM [1]: 80 to 90%
- inhibition at 0.5 µM [2]: 80 to 90%

Structure (SMILES): CN(C)c1cc(CNc2cc(F)cc(F)c2)c2oc(N3CCOCC3)cc(=O)c2c1 [Compound 2, 8-(((3,5-difluorophenyl)amino)methyl)-6-(dimethylamino)-2-morpholino-4H-chromen-4-one]
- inhibition at 0.5 µM [1]: 60 to 80%
- inhibition at 0.5 µM [2]: 60 to 80%

Structure (SMILES): CN(C)C1CN(C(=O)c2cc(CN3CCc4c(F)cc(F)cc43)c3oc(N4CCOCC4)cc(=O)c3c2)C1 [Compound 46, 8-((4,6-difluoroindolin-1-yl)methyl)-6-(3-(dimethylamino)azetidine-1-carbonyl)-2-morpholino-4H-chromen-4-one]
- inhibition at 0.5 µM [1]: 80 to 90%
- inhibition at 0.5 µM [2]: 80 to 90%

Structure (SMILES): CN(C)CCN(C)C(=O)c1cc(CN2CCc3c(F)cc(F)cc32)c2oc(N3CCOCC3)cc(=O)c2c1 [Compound 40, 8-((4,6-difluoroindolin-1-yl)methyl)-N-(2-(dimethylamino)ethyl)-N-methyl-2-morpholino-4-oxo-4H-chromene-6-carboxamide]
- inhibition at 0.5 µM [1]: > 90%
- inhibition at 0.5 µM [2]: > 90%

Structure (SMILES): Cc1cc(CN2c3ccccc3CC2C)c2nc(N3CCOCC3)cc(=O)n2c1 (centres unmarked) [Compound 57, 7-methyl-9-((2-methylindolin-1-yl)methyl)-2-morpholino-4H-pyrido[1,2-a]pyrimidin-4-one]
- inhibition at 0.5 µM [1]: 60 to 80%
- inhibition at 0.5 µM [2]: 60 to 80%

Structure (SMILES): Cc1cc(CN2CCc3cc(F)ccc32)c2nc(N3CCOCC3)cc(=O)n2c1 [Compound 56, 9-((5-fluoroindolin-1-yl)methyl)-7-methyl-2-morpholino-4H-pyrido[1,2-a]pyrimidin-4-one]
- inhibition at 0.5 µM [1]: 60 to 80%
- inhibition at 0.5 µM [2]: 60 to 80%

Structure (SMILES): O=C(c1cc(CN2CCc3c(F)cc(F)cc32)c2oc(N3CCOCC3)cc(=O)c2c1)N1CCC1 [Compound 45, 6-(azetidine-1-carbonyl)-8-((4,6-difluoroindolin-1-yl)methyl)-2-morpholino-4H-chromen-4-one]
- inhibition at 0.5 µM [1]: > 90%
- inhibition at 0.5 µM [2]: > 90%

Structure (SMILES): O=c1cc(N2CCOCC2)oc2c(CNc3cc(F)cc(F)c3)cc(C3CC3)cc12 [Compound 6, 6-cyclopropyl-8-(((3,5-difluorophenyl)amino)methyl)-2-morpholino-4H-chromen-4-one]
- inhibition at 0.5 µM [1]: 60 to 80%
- inhibition at 0.5 µM [2]: 60 to 80%

Structure (SMILES): CC(Nc1ccc(F)c(F)c1)c1cc(C(=O)N2CC[C@@H](N(C)C)C2)cn2c(=O)cc(N3CCOCC3)nc12 (stereo partly drawn) [Compound 94, 9-(1-((3,4-difluorophenyl)amino)ethyl)-7-((R)-3-(dimethylamino)pyrrolidine-1-carbonyl)-2-morpholino-4H-pyrido[1,2-a]pyrimidin-4-one]
- inhibition at 0.5 µM [3]: 60 to 80%
- inhibition at 0.5 µM [4]: 60 to 80%

Structure (SMILES): C[C@@H]1CN(c2cc(=O)n3cc(C(=O)N(C)C)cc(CN4CCc5c(F)cccc54)c3n2)CCO1 [Compound 101, (R)-9-((4-fluoroindolin-1-yl)methyl)-N,N-dimethyl-2-(2-methylmorpholino)-4-oxo-4H-pyrido[1,2-a]pyrimidine-7-carboxamide]
- inhibition at 0.5 µM [1]: > 90%
- inhibition at 0.5 µM [2]: > 90%

Structure (SMILES): CCN(CC)C(=O)c1cc(CN2CCc3c(F)cc(F)cc32)c2oc(N3CCOCC3)cc(=O)c2c1 [Compound 78, 8-((4,6-difluoroindolin-1-yl)methyl)-N,N-diethyl-2-morpholino-4-oxo-4H-chromene-6-carboxamide]
- inhibition at 0.5 µM [1]: 80 to 90%
- inhibition at 0.5 µM [2]: 80 to 90%

Structure (SMILES): C#Cc1cc(CNc2cc(F)cc(F)c2)c2oc(N3CCOCC3)cc(=O)c2c1 [Compound 5, 8-(((3,5-difluorophenyl)amino)methyl)-6-ethynyl-2-morpholino-4H-chromen-4-one]
- inhibition at 0.5 µM [3]: 60 to 80%
- inhibition at 0.5 µM [4]: 60 to 80%

Structure (SMILES): CC1(C#N)CN(C(=O)c2cc(CN3CCc4c(F)cc(F)cc43)c3oc(N4CCOCC4)cc(=O)c3c2)C1 [Compound 88, 1-(8-((4,6-difluoroindolin-1-yl)methyl)-2-morpholino-4-oxo-4H-chromene-6-carbonyl)-3-methylazetidine-3-carbonitrile]
- inhibition at 0.5 µM [1]: 60 to 80%
- inhibition at 0.5 µM [2]: 60 to 80%
